The target in this test is T1, Squalene synthase (Rattus norvegicus, UniProt Q02769).
T1 sequence (Q02769 whole entry): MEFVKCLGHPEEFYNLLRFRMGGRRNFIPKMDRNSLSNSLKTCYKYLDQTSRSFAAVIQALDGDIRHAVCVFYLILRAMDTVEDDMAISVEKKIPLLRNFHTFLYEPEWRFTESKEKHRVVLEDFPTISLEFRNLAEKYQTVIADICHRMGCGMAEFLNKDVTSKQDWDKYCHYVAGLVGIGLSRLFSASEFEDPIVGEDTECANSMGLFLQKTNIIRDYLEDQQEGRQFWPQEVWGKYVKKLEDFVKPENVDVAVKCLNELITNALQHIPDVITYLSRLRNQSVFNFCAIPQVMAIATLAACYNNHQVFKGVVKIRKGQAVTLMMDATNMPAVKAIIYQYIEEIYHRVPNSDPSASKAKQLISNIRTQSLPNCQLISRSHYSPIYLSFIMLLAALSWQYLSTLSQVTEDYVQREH
As to the kind of experiment: In vitro inhibitory concentration against squalene synthase from male rat liver microsomes. Format: tissue-based. In general terms: Liver microsomes are a subcellular fraction often used to study metabolism.
The compound `C=C(CC[C@]12O[C@H](C(=O)O)[C@@](O)(C(=O)O)[C@](C(=O)O)(O1)C(O)OC2O)[C@@H](OC(C)=O)[C@H](C)Cc1ccccc1` (stereo not given in full) displayed a 50% inhibitory concentration (IC50) of 39 nM.
On to `C=C(CC[C@]1(C(N)=O)O[C@H](C(=O)O)[C@@](O)(C(=O)O)[C@](COC(C)=O)(C(=O)O)O1)[C@@H](OC(C)=O)[C@H](C)Cc1ccccc1`, for which the midpoint of inhibition, the IC50, lay at 270 nM.
On to `C=C(CC[C@@]12O[C@H](C(=O)O)[C@@](O)(C(=O)O)[C@@](C(=O)O)(COC1=O)O2)[C@@H](OC(C)=O)[C@H](C)Cc1ccccc1`, for which the IC50 was 200 nM.
Next, `C=C(CC[C@]1(C(N)=O)O[C@H](C(=O)O)[C@@](O)(C(=O)O)[C@](COC(=O)/C=C/[C@@H](C)C[C@@H](C)CC)(C(=O)O)O1)[C@@H](OC(C)=O)[C@H](C)Cc1ccccc1`: 11 nM; `C=C(CC[C@@]12CC[C@@](C(=O)O)(O1)[C@](O)(C(=O)O)[C@@H](C(=O)O)O2)[C@@H](OC(C)=O)[C@H](C)Cc1ccccc1`: 57 nM.

By IC50 is commonly meant the concentration needed to halve the response being measured.

(Values after ChEMBL document CHEMBL1127258, “Structurally simplified squalestatins: monocyclic 1,3-dioxane analogues” (Bioorg Med Chem Lett, 1994).)
